From ChEMBL document CHEMBL1133910, “N-hydroxyformamide peptidomimetics as TACE/matrix metalloprotease inhibitors: oral activity via P1' isobutyl substitution” (Bioorg Med Chem Lett, 2001)
Activity calls are given as the source filed them. The rule behind the calls is not given here.

Assays:
[1] = molecular target: Matrix metalloproteinase-9 (Homo sapiens, UniProt P14780); assay: Inhibition of Matrix metalloprotease-9
Mus musculus [2] = assay: In vivo inhibition of Murine Lipopolysaccharide induced plasma TNF on peroral administration of the compound; IA means inactive; type: functional, organism-based
[3] = Compound was evaluated for inhibition of cellular release of TNF-alpha from MonoMac-6 cells; type: functional, cell-based; conditions: Homo sapiens, MONO-MAC-6
Stromelysin-1 [4] = molecular target: T1, Stromelysin-1 (Homo sapiens, UniProt P08254); assay: Inhibition of Matrix metalloprotease-3
Interstitial collagenase = molecular target: T2, Interstitial collagenase (Homo sapiens, UniProt P03956); assay: Inhibition of Matrix metalloprotease-1
T2 sequence (P03956 whole entry): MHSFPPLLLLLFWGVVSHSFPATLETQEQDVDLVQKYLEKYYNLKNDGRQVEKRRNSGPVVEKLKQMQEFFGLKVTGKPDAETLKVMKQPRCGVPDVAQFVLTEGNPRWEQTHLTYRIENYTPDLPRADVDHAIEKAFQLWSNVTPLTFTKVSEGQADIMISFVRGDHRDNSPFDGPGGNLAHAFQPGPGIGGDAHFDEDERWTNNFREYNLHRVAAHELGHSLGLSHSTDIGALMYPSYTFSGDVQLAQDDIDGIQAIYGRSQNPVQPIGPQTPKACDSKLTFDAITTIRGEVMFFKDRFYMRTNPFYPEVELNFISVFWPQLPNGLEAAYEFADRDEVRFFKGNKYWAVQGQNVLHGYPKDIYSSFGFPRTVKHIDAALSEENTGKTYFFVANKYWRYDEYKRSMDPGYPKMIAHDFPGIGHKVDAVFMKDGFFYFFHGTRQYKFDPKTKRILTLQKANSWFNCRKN

[5] = molecular target: T3, Disintegrin and metalloproteinase domain-containing protein 17 (Homo sapiens, UniProt P78536); assay: Inhibition of Tumor necrosis factor alpha converting enzyme
Stromelysin-1 [6] = molecular target: T1, Stromelysin-1; assay: Inhibition of matrix metalloprotease-3 (MMP3)
Mus musculus [7] = assay: In vivo inhibition of Murine Lipopolysaccharide induced plasma TNF on peroral administration of the compound; type: functional; design: concentration or dose not given beside the values
[8] = molecular target: T3, Disintegrin and metalloproteinase domain-containing protein 17; assay: Inhibition of TNF-alpha converting enzyme (TACE)
Mus musculus [9] = assay: In vivo inhibition of Murine Lipopolysaccharide induced plasma TNF on peroral administration of the compound; IA means Inactive; type: functional, organism-based
[10] = Bioavailability by intravenous administration of 1.2 mg/kg in dog; type: ADME, organism-based, Canis lupus familiaris; conditions: in vivo
[11] = Maximum concentration by intravenous administration of 1.2 mg/kg in dog; type: ADME, organism-based, Canis lupus familiaris; design: dose 1.2 mg/kg, route intravenous; conditions: in vivo
[12] = Area under curve was determined for the compound by intravenous administration of 1.2 mg/kg in dog; type: ADME, organism-based, Canis lupus familiaris; design: dose 1.2 mg/kg, route intravenous; conditions: in vivo
[13] = Area under curve was determined for the compound by intravenous administration of 3.4 mg/kg in rat; type: ADME, organism-based; design: dose 3.4 mg/kg, route intravenous; conditions: in vivo
[14] = Half life by intravenous administration of 3.4 mg/kg in rat; type: ADME, organism-based; design: dose 3.4 mg/kg, route intravenous; conditions: in vivo
[15] = Clearance by intravenous administration of 1.2 mg/kg in dog; type: ADME, organism-based, Canis lupus familiaris; design: dose 1.2 mg/kg, route intravenous; conditions: in vivo
Mus musculus [16] = assay: Percent inhibition of Murine Lipopolysaccharide induced plasma TNF on peroral administration of the compound; type: functional
[17] = Half life by intravenous administration of 1.2 mg/kg in dog; type: ADME, organism-based, Canis lupus familiaris; design: dose 1.2 mg/kg, route intravenous; conditions: in vivo
[18] = Maximum concentration by intravenous administration of 3.4 mg/kg in rat; type: ADME, organism-based; design: dose 3.4 mg/kg, route intravenous; conditions: in vivo
[19] = Bioavailability by intravenous administration of 3.4 mg/kg in rat; type: ADME, organism-based; conditions: in vivo
[20] = Clearance by intravenous administration of 3.4 mg/kg in rat; type: ADME, organism-based; design: dose 3.4 mg/kg, route intravenous; conditions: in vivo

Chain of Matrix metalloproteinase-9 (P14780 whole entry): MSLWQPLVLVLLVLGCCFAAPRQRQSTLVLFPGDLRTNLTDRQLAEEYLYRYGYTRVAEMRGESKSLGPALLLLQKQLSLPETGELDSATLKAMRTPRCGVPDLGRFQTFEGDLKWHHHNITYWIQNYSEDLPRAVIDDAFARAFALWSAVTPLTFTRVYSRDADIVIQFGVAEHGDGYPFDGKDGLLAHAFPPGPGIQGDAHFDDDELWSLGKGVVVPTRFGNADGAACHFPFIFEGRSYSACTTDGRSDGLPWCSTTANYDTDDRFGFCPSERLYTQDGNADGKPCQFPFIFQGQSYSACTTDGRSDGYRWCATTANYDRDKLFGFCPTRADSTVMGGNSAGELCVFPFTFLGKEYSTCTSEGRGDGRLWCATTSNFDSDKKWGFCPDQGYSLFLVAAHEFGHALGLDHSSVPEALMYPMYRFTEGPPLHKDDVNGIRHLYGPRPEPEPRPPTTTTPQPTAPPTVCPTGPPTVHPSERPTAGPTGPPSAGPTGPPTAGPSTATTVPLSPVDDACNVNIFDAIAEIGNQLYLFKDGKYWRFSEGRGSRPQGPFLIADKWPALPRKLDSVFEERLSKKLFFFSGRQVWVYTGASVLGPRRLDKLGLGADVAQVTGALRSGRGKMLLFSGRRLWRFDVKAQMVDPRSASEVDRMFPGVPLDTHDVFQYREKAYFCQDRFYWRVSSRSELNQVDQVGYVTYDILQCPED
T1 sequence (P08254 whole entry): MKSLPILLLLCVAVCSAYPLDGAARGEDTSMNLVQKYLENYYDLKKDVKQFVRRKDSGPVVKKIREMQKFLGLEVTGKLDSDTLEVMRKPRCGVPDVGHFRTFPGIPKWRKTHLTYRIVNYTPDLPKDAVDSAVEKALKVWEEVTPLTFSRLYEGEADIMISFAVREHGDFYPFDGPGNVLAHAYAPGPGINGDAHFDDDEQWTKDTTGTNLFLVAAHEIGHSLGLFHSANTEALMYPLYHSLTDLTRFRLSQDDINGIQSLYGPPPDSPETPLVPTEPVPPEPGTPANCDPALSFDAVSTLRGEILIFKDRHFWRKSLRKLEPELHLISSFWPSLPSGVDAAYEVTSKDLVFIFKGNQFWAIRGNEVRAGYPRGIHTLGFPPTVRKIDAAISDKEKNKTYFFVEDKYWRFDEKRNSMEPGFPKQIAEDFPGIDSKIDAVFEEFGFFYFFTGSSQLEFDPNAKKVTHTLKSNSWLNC
T3 sequence (P78536 whole entry, the tested form may be a part): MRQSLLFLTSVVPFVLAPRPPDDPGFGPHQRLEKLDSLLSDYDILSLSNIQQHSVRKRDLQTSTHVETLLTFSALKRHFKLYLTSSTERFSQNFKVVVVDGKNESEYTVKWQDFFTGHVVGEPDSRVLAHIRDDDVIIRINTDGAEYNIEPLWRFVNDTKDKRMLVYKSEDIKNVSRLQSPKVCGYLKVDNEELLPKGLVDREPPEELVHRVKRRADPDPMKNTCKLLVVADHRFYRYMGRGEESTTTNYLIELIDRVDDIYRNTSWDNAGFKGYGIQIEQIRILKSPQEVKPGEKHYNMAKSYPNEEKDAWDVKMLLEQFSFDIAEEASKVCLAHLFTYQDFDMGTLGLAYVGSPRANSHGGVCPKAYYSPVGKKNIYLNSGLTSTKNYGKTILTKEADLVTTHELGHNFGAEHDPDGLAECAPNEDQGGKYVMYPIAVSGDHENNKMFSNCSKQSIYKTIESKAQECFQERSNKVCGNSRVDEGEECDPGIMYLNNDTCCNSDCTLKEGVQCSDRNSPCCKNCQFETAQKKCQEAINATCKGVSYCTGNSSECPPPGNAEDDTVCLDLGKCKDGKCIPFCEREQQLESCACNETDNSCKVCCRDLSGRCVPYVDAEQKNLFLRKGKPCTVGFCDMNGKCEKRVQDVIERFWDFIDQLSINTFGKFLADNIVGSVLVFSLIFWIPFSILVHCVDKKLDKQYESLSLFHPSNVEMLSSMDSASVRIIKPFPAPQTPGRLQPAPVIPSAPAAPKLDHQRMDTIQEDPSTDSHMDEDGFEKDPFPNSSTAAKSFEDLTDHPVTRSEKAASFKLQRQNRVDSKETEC

Ki [1]	IC50 [3]	Ki (Stromelysin-1 [4])	Ki (Interstitial collagenase)	Ki (Stromelysin-1 [6])	SMILES	Ki [5]	Inhibition (Mus musculus [7])	also measured
98 nM	3960 nM	354 nM	170 nM	–	CC(C)C[C@@H](C(=O)N[C@@H](CC(C)(C)C)C(=O)Nc1nccs1)[C@H](C)N(O)C=O	64 nM	–	inhibition (Mus musculus [2]): inactive
21 nM	2950 nM	2320 nM	17 nM	–	CNC(=O)[C@@H](NC(=O)[C@H](CC(C)C)[C@H](C)N(O)C=O)C(C)(C)C	142 nM	–	–
24 nM	92 nM	–	42 nM	45 nM	CC[C@H](C)[C@H](NC(=O)[C@H](CC(C)C)[C@H](CC)N(O)C=O)C(=O)Nc1nccs1	11 nM	48%	–
33 nM	3070 nM	406 nM	181 nM	–	CC(C)C[C@@H](C(=O)N[C@H](C(N)=O)C(C)(C)C)[C@H](C)N(O)C=O	156 nM	–	–
17 nM	1690 nM	80 nM	97 nM	–	CC(C)C[C@H](NC(=O)[C@H](CC(C)C)[C@H](C)N(O)C=O)C(=O)Nc1nccs1	55 nM	–	inhibition (Mus musculus [2]): inactive
29 nM	270 nM	93 nM	41 nM	–	CC[C@H](C)C(NC(=O)[C@H](CC(C)C)[C@H](C)N(O)C=O)C(=O)Nc1nccs1 (single isomer, unassigned)	20 nM	48%	–
17 nM	681 nM	120 nM	36 nM	–	CC(C)C[C@@H](C(=O)N[C@H](C(=O)Nc1nccs1)C(C)C)[C@H](C)N(O)C=O	27 nM	61%	–
73 nM	1410 nM	–	55 nM	38 nM	CCC(C)[C@H](NC(=O)[C@H](CC(C)C)[C@H](CC)N(O)C=O)C(=O)Nc1ccccn1 (stereo not given in full)	31 nM	62%	–
2 nM	5720 nM	310 nM	2 nM	–	CNC(=O)[C@@H](NC(=O)[C@@H](CC(=O)NO)CC(C)C)C(C)(C)C [RO-319790]	–	–	Ki [8]: 87 nM; inhibition (Mus musculus [9]): inactive
28 nM	200 nM	–	16 nM	135 nM	CC[C@@H]([C@@H](CC(C)C)C(=O)N[C@H](C(=O)Nc1nccs1)C(C)(C)C)N(O)C=O	16 nM	52%	–
34 nM	245 nM	437 nM	27 nM	–	CC(C)C[C@@H](C(=O)N[C@H](C(=O)Nc1nccs1)C(C)(C)C)[C@H](C)N(O)C=O	20 nM	–	bioavailability [10]: 44%; Cmax [11]: 4530 ng/mL; AUC [12]: 2100 ng·h/mL; AUC [13]: 957 ng·h/mL; half-life [14]: 3.4 h; clearance [15]: 10 mL/min/kg; Inhibition (Mus musculus [16]): 60%; half-life [17]: 2.8 h; Cmax [18]: 2330 ng/mL; bioavailability [19]: 26%; clearance [20]: 62 mL/min/kg
89 nM	304 nM	–	47 nM	153 nM	CC[C@@H]([C@@H](CC(C)C)C(=O)N[C@H](C(=O)Nc1ccccn1)C(C)(C)C)N(O)C=O	29 nM	61%	–
